Common to all, as to type: cell-based
In data set [1] the target is T1, Signal transducer and activator of transcription 6 (Homo sapiens) (UniProt P42226).
T1 sequence (whole entry): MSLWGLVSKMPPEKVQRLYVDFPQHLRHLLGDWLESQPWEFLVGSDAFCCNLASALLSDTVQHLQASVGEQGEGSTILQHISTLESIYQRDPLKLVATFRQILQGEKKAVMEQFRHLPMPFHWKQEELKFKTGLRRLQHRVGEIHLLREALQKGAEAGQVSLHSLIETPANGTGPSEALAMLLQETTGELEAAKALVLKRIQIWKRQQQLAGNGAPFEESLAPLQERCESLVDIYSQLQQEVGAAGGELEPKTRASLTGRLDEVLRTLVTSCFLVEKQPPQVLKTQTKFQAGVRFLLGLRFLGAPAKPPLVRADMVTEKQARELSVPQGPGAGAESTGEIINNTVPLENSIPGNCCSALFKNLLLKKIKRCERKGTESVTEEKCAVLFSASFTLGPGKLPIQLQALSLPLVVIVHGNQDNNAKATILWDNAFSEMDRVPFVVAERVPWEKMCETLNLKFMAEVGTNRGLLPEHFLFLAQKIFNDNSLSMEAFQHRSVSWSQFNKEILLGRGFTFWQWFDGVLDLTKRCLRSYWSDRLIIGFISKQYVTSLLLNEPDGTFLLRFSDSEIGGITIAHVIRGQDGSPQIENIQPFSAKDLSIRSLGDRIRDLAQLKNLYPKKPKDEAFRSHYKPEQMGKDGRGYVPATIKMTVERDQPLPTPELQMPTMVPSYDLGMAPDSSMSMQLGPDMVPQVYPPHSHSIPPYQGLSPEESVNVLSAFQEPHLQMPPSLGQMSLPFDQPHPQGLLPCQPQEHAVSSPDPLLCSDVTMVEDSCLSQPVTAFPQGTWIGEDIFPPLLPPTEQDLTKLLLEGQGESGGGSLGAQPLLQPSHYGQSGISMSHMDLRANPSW
Description: Inhibition of IL4-stimulated SH2 domain of STAT6 phosphorylation at Tyr641 in human BEAS2B cells at 1 to 10 uM incubated for 2 to 48 hrs prior to IL-4 challenge measured after 1 hr by Western blotting analysis.

In data set [2] the target is T1, Signal transducer and activator of transcription 6 (Homo sapiens). Description: Inhibition of IL13-stimulated SH2 domain of STAT6 phosphorylation at Tyr641 in human BEAS2B cells at 1 to 10 uM incubated for 2 hrs prior to IL-13 challenge measured after 1 hr by Western blotting analysis. On the technique in general: Immunoblotting shows a protein as a band on a membrane.

For data set [3] the target is unchanged. Description: Inhibition of IL4-stimulated SH2 domain of STAT6 phosphorylation at Tyr641 in human BEAS2B cells at 1 to 10 uM incubated for 2 hrs prior to IL-4 challenge measured after 1 hr by Western blotting analysis.
The nature of data set [4]: Cytotoxicity against human BEAS2B cells up to 10 uM after 72 hrs by MTS assay. Particulars: beas-2b. (Formazan colour is commonly taken as a measure of viable cells.)

We go through 1 compound from ChEMBL document CHEMBL3108719, “Synthesis and in Vitro Evaluation of a Peptidomimetic Inhibitor Targeting the Src Homology 2 (SH2) Domain of STAT6” (ACS Med Chem Lett, 2014).

The source made the active and inactive calls. The rule behind the calls is not given here.

On to `CC(C)(C)C(=O)OCOP(=O)(OCOC(=O)C(C)(C)C)C(F)(F)c1ccc(/C=C/C(=O)N[C@H](C(=O)N2CCC[C@H]2C(=O)N(c2ccccc2)c2ccc(I)cc2)C(C)(C)C)cc1`, for which the inhibition result in data set [1], in data set [2] and in data set [3] was “Active” throughout. Also, the Activity entry in data set [4] is on record as “Non-toxic”.
